Data on one compound can be found in ChEMBL document CHEMBL1156872, “Synthesis and discovery of 2,3-dihydro-3,8-diphenylbenzo[1,4]oxazines as a novel class of potent cholesteryl ester transfer protein inhibitors” (Bioorg Med Chem Lett, 2010).

Values after ≈ are worked out from the molar mass of the structure shown.

The target of one data set is Cytochrome P450 2C19 (Homo sapiens, UniProt P33261). Nature of the data set: Inhibition of CYP2C19 in human liver microsomes. It counts as ADME, Microsome.
Data set [1] is described as follows: Volume of distribution at steady state in rat at 10 mg/kg, po and 2 mg/kg, iv. Type of data set: ADME, organism-based. To be noted: in vivo, read-out: Vdss.
Data set [2] relates to Mus musculus. Nature of the data set: Increase in HDL cholesterol level in normal chow diet fed male CETP transgenic mouse at 3 mg/kg, po after 5 days. It counts as functional.
The target of data set [3] is T1, Cholesteryl ester transfer protein (Homo sapiens, UniProt P11597).
T1 sequence (P11597 whole entry): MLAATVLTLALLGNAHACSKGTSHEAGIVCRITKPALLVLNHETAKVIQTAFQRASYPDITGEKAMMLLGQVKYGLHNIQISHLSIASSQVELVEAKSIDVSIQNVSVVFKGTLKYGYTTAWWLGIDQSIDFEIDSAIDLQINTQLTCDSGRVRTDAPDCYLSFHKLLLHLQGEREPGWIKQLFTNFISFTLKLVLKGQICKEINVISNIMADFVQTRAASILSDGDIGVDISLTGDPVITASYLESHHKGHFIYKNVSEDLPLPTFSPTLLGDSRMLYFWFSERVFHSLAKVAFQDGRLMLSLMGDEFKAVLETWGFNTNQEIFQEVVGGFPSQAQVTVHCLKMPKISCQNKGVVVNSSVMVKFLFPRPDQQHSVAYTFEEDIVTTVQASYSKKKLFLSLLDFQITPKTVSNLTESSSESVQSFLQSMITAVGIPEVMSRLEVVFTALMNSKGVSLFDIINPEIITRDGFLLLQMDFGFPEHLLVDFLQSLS
The experiment in a line: Inhibition of cholesteryl ester transfer protein in human plasma by [3H]CE HDL assay. Type of data set: cell-free.

Data set [4] relates to Mus musculus. The experiment in a line: Increase in HDL cholesterol level in normal chow diet fed male CETP transgenic mouse at 30 mg/kg, po after 5 days. It counts as functional.
Data set [5] is described as follows: Aqueous solubility at pH 2.0. It counts as physicochemical. To be noted: aqueous medium.
Data set [6] has as its target T2, Cholesteryl ester transfer protein (Homo sapiens) (UniProt P11597).
T2 sequence (whole entry): T1 sequence (P11597 whole entry)
Nature of the data set: Inhibition of human cholesteryl ester transfer protein at 1 uM by scintillation proximity assay. In general terms: SPA uses beads or plates that emit light when radiolabelled molecules are held near them.

Another data set has as its target T3, Cytochrome P450 1A2 (Homo sapiens, UniProt P05177).
T3 sequence (P05177 whole entry): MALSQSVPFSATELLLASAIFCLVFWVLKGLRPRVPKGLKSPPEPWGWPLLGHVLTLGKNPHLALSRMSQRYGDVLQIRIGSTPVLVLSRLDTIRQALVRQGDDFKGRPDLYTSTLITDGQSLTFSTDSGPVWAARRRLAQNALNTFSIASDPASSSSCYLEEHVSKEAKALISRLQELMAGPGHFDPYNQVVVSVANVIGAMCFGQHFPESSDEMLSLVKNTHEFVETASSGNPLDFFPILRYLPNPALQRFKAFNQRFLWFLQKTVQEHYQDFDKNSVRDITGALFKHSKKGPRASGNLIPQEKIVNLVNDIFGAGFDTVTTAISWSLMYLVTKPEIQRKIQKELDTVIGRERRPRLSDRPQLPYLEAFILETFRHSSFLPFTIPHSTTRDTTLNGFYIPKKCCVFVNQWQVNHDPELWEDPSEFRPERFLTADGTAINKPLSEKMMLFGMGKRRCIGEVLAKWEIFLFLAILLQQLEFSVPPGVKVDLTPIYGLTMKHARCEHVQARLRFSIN
The experiment in a line: Inhibition of CYP1A2 in human liver microsomes. Type of data set: ADME, Microsome. (In general: Liver microsomes are vesicles of endoplasmic reticulum, rich in cytochrome P450 enzymes.)

The target in data set [7] is T4, Cytochrome P450 3A4 (Homo sapiens, UniProt P08684). The experiment in a line: Inhibition of CYP3A4 […] isoform in human liver microsomes. It counts as ADME, Microsome.
Data set [8] is described as follows: Aqueous solubility at pH 7.4. Type of data set: physicochemical. To be noted: aqueous medium.
Data set [9] relates to Hamster. Nature of the data set: Increase in HDL cholesterol level in high fat diet fed hamster at 30 mg/kg, po after 5 days. It counts as functional, Cricetinae.
Data set [10] in a line: Oral bioavailability in rat at 10 mg/kg. Type of data set: ADME, organism-based. To be noted: in vivo.
For data set [11], the system named is Hamster. The experiment in a line: Increase in HDL cholesterol level in high fat diet fed hamster at 10 mg/kg, po after 5 days. It counts as functional, Cricetinae.
Data set [12] relates to Mus musculus. Nature of the data set: Increase in HDL cholesterol level in normal chow diet fed male CETP transgenic mouse at 10 mg/kg, po after 5 days. It counts as functional.
A further data set deals with Cytochrome P450 2C9 (Homo sapiens, UniProt P11712). Nature of the data set: Inhibition of CYP2C9 in human liver microsomes. It counts as ADME, Microsome.
A short description of data set [13]: Clearance in rat at 10 mg/kg, po and 2 mg/kg, iv. Type of data set: ADME, organism-based. The following applies: in vivo.
A short description of data set [14]: Half life in human liver microsomes. Type of data set: ADME, Microsome.
A short description of data set [15]: Tmax in rat at 10 mg/kg, po and 2 mg/kg, iv. Type of data set: ADME, organism-based. The following applies: in vivo.
The target in data set [16] is T4, Cytochrome P450 3A4. Nature of the data set: Inhibition of CYP3A4 tissue isoform in human liver microsomes. It counts as ADME, Microsome.
Another data set addresses Cytochrome P450 2D6 (Homo sapiens, UniProt P10635). The experiment in a line: Inhibition of CYP2D6 in human liver microsomes. It counts as ADME, Microsome.
The test system of data set [17] is Mus musculus. The experiment in a line: Increase in HDL cholesterol level in normal chow diet fed female CETP transgenic mouse at 10 mg/kg, po after 5 days. Type of data set: functional.
The subject of data set [18] is Mus musculus. The experiment in a line: Increase in HDL cholesterol level in normal chow diet fed female CETP transgenic mouse at 3 mg/kg, po after 5 days. It counts as functional.
The subject of data set [19] is Mus musculus. Nature of the data set: Increase in HDL cholesterol level in normal chow diet fed female CETP transgenic mouse at 30 mg/kg, po after 5 days. Type of data set: functional.
A short description of data set [20]: AUC in rat at 10 mg/kg, po and 2 mg/kg, iv. Type of data set: ADME, organism-based. To be noted: plasma.

T4 sequence (P08684 whole entry, canonical isoform): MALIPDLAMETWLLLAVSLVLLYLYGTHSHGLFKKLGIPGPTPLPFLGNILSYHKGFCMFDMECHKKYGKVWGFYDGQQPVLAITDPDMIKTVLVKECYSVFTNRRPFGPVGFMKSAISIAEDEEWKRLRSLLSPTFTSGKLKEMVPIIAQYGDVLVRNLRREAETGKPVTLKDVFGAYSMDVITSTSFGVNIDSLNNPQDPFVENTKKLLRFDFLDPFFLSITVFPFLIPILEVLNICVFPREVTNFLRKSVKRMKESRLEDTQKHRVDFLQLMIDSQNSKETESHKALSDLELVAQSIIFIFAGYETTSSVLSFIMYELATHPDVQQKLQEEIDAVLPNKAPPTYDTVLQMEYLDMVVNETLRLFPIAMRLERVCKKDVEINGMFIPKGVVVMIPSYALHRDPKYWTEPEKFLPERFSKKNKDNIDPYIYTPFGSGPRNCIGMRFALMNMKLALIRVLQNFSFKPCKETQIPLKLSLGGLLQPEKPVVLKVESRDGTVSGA
Chain of Cytochrome P450 2D6 (P10635 whole entry): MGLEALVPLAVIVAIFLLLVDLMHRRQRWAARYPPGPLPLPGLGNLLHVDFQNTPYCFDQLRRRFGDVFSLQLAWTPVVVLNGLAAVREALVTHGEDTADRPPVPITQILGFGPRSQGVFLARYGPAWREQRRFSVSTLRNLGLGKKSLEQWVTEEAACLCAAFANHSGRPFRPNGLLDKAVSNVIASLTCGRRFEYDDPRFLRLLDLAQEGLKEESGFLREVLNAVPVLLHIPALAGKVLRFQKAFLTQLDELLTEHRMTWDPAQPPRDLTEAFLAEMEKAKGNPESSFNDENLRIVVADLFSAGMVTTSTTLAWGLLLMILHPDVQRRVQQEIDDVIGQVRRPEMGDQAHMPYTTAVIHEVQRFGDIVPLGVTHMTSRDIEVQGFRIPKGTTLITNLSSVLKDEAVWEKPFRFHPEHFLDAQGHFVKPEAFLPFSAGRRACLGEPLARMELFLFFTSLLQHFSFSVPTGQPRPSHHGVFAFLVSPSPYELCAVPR
Chain of Cytochrome P450 2C9 (P11712 whole entry): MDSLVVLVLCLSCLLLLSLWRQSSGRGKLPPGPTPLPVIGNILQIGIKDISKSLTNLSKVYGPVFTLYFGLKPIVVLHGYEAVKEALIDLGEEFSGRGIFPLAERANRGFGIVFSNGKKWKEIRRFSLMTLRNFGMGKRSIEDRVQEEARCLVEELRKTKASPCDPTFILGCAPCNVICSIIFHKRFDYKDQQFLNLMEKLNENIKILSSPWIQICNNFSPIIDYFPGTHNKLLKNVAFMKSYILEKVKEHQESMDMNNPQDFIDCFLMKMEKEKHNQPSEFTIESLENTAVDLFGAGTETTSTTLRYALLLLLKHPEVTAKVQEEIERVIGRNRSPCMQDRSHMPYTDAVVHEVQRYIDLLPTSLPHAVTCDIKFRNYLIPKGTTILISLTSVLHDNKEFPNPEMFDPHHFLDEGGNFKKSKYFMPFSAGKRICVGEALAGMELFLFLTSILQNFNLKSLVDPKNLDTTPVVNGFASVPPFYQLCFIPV
Chain of Cytochrome P450 2C19 (P33261 whole entry): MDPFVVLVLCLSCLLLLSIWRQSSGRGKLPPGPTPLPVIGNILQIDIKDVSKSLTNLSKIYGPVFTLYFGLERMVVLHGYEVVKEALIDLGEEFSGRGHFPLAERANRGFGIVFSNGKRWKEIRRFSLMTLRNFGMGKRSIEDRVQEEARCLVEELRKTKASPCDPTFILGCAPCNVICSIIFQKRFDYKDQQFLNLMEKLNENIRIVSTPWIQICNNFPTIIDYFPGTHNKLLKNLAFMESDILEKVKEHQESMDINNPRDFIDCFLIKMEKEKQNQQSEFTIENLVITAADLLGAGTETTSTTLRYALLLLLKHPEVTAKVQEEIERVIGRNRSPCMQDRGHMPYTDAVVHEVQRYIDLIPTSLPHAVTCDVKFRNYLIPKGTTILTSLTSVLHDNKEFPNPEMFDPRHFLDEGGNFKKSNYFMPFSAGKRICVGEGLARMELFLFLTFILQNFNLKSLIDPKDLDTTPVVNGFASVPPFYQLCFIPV

One may read the IC50 as the concentration that inhibits the measured activity by half. By solubility is commonly meant the concentration that dissolves in the medium under given conditions. Read a high solubility as much dissolved substance. As a reminder, the inhibition is the percentage by which the read-out fell short of the control. A higher inhibition goes with a response far below the control. The bioavailability is the share of a dose that reaches the circulation, judged against a reference dose that is usually intravenous. A high value points to much systemic uptake. Usually half-life stands for how long it takes for the measured level to halve. Higher therefore signals slow loss. One may read the Tmax as the time at which the peak concentration occurs. What is called AUC is concentration integrated over time. For `O[C@@H](CN1c2cccc(-c3cccc(OC(F)(F)F)c3)c2OC[C@@H]1c1cccc(OC(F)(F)C(F)F)c1)C(F)(F)F`, the concentration for half-maximal inhibition (IC50) is more than 100 µM against Cytochrome P450 2C19; 1 µM in [3]; more than 100 µM at Cytochrome P450 1A2; more than 100 µM at Cytochrome P450 3A4 [7]; more than 100 µM against Cytochrome P450 2C9; more than 100 µM on Cytochrome P450 3A4 [16]. In addition, the IC50 at Cytochrome P450 2D6 is more than 100 µM. Moreover, the Vd in [1] was 0.73 L/kg. Also, the Activity with Mus musculus [2] stood at 11%; in the data set with Mus musculus [4] it was 28%; in the data set on Hamster [9], 16%; in the data set on Hamster [11], 9%; in the data set with Mus musculus [12], 10%; with Mus musculus [17] it was 8%. The Activity worked out at 4% in the data set with Mus musculus [18] and 24% in the data set with Mus musculus [19]. In addition, the values for the solubility in data set [5] and in [8] were 11 µg/mL (≈ 18.4 µM) and 2.7 µg/mL (≈ 4.5 µM), respectively. In [6], this compound came in with an inhibition of 91%. This compound registered a bioavailability in data set [10] of 53%. The clearance in data set [13] was determined as 4.6 mL/min/kg. This compound gave a half-life in data set [14] of 1.03 h. Besides, in data set [15], the Tmax was 11.5 h. The same compound had an AUC in data set [20] of 19800 ng·h/mL.
